Test results reported in patent US20100267784A1, “NOVEL 4,5-DIHYDROISOXAZOLES WITH ESTROGENIC ACTIVITY” (priority 2007, published 2010).

Columns and labels:
[1] = target: T1, ERα (Homo sapiens, UniProt P03372); experiment: ERα reporter (luciferase) transactivation assay in transfected HEK293 cells; type: cell-based; parameters: expressed in transfected cells; host or cells: HEK293; details: sample concentration 10 μM, 24 hours, mean of at least three independent transfections
T1 sequence (P03372 1-595): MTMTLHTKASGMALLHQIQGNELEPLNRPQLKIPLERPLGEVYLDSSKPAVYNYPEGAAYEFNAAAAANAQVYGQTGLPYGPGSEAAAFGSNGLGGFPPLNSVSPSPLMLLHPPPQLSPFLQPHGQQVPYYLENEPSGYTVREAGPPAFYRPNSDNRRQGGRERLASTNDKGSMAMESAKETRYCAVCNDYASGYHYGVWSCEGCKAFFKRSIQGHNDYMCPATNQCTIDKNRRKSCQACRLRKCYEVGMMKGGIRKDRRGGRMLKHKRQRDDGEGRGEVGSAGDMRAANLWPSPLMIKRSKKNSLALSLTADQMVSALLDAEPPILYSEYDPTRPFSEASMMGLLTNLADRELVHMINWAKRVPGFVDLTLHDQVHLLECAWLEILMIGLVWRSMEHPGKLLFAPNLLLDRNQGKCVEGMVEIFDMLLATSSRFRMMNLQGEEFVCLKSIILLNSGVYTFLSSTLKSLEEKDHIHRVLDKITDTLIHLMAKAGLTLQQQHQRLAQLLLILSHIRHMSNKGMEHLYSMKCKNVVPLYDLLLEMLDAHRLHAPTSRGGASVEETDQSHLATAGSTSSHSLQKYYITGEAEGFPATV
Description: (§1) Determination of the Estrogen Activity of the Compounds: Cell Culture, Transfection and Reporter Assays
(§2) All other reagents were of reagent grade from Sigma or Fluka. One day before transfection, HEK293 cells were seeded in 48-well plates (70×10^3 cells per well) in phenol-free Dulbecco's modified Eagle medium supplemented with 5% delipidated fetal bovine serum (Sigma) and antibiotics. After a medium change, the cells were transfected for 4 hours with 5 ng ERα or ERβ expression vector, 75 ng reporter plasmid pERE2TATA-LUC and 20 ng control plasmid pCMVβ by the calcium phosphate method. After transfection, the cells received fresh medium containing either vehicle (0.1% v/v) or test compound (10 μM). After 24 hours, the cells were washed, lysed and luciferase and β-galactosidase activities were determined from 20 μl of lysates with the Victor^2TM reader (PerkinElmer Wallac, Turku, Finland). […] The data are means ±SEM of at least three independent transfections.

[2] = target: ERβ (Homo sapiens, UniProt Q92731); experiment: ERβ reporter (luciferase) transactivation assay in transfected HEK293 cells; type: cell-based; parameters: expressed in transfected cells; host or cells: HEK293; details: for ERβ receptor activation relative to 10 nM E2 corresponding 100: sample concentration 10 μM, 24 hours, mean of at least three independent transfections
Description: as §1, §2

Sequence of ERβ (Q92731 whole entry): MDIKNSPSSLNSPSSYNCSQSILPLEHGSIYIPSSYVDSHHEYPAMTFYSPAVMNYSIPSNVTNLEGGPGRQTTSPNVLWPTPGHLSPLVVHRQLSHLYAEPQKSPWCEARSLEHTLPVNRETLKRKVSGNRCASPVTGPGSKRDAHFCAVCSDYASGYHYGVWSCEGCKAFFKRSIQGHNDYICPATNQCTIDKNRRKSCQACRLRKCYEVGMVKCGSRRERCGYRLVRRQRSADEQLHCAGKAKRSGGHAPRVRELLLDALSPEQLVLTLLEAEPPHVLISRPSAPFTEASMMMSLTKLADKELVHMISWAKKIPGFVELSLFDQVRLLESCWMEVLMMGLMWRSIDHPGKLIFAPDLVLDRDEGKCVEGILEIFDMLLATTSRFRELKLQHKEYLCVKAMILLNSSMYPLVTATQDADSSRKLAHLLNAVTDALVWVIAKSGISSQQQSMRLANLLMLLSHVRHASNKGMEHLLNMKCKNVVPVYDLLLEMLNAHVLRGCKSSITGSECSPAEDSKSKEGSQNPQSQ

| SMILES | melting point [°C] | ERα receptor activation relative to 10 nM E2 corresponding 100 [1] [%] | ERβ receptor activation relative to 10 nM E2 corresponding 100 [2] [%] | other results |
| --- | --- | --- | --- | --- |
| COc1ccc(CC2CC(c3ccc(Cl)cc3)=NO2)cc1OC (centres unmarked) [compound 39, 3-(4-Chlorophenyl)-5-(3,4-dimethoxybenzyl)-4,5-dihydroisoxazole] | 89 to 90.4 |  |  |  |
| COc1ccc(C2=NOC(Cc3c(F)c(F)c(F)c(F)c3F)C2)cc1 (centres unmarked) [compound 19, 3-(4-methoxyphenyl)-5-pentafluorobenzyl-4,5-dihydroisoxazole] | 123 to 124 |  |  |  |
| Oc1ccccc1CCC1=NOC(Cc2ccc(F)cc2)C1 (centres unmarked) [compound 97, 5-(4-Fluoro-benzyl)-3-[2-(2-hydroxy-phenyl)-ethyl]-4,5-dihydro-isoxazole] | 124.8 to 126.4 |  |  |  |
| Oc1cccc(CCC2=NOC(Cc3ccccc3)C2)c1 (centres unmarked) [compound 92, 5-Benzyl-3-[2-(3-hydroxy-phenyl)-ethyl]-4,5-dihydro-isoxazole] | 120.6 to 122.8 |  |  |  |
| Oc1ccc(CC2CC(CCc3ccccc3)=NO2)cc1 (centres unmarked) [compound 94, 5-(4-Hydroxy-benzyl)-3-phenethyl-4,5-dihydro-isoxazole] | 124.8 to 126.4 |  |  |  |
| COc1ccc(CC2CC(c3c(Cl)cccc3Cl)=NO2)cc1 (centres unmarked) [compound 43, 3-(2,6-Dichlorophenyl)-5-(4-methoxybenzyl)-4,5-dihydroisoxazole] | 90.1 to 90.6 |  |  |  |
| COc1ccc(C2=NOC(Cc3ccc(F)cc3)C2)cc1 (centres unmarked) [compound 18, 5-(4-Fluorobenzyl)-3-(4-methoxyphenyl)-4,5-dihydroisoxazole] | 116.7 to 118.7 |  |  |  |
| COc1ccc(C2=NOC(C)(Cc3ccccc3)C2)cc1 (centres unmarked) [compound 53, 5-Benzyl-3-(4-methoxyphenyl)-5-methyl-4,5-dihydro-isoxazole] | 97.8 to 98.6 |  |  |  |
| Fc1ccc(C2=NOC(CCc3ccccc3)C2)cc1 (centres unmarked) [compound 62, 3-(4-Fluoro-phenyl)-5-phenethyl-4,5-dihydro-isoxazole] | 69.8 to 71.2 |  |  |  |
| COc1ccc(C2=NOC(CCc3ccccc3)C2)cc1 (centres unmarked) [compound 60, 3-(4-Methoxy-phenyl)-5-phenethyl-4,5-dihydro-isoxazole] | 69.7 to 71.9 |  |  |  |
| Clc1ccc(C2=NOC(Cc3ccccc3)(c3ccccc3)C2)cc1 (centres unmarked) [compound 76, 5-Benzyl-3-(4-chlorophenyl)-5-phenyl-4,5-dihydro-isoxazole] | 120.3 to 122.1 |  |  |  |
| COc1cccc(C2=NOC(Cc3ccccc3)(c3ccccc3)C2)c1 (centres unmarked) [compound 77, 5-Benzyl-5-phenyl-3-(3-methoxyphenyl)-4,5-dihydro-isoxazole] | 94.4 to 95.2 |  |  |  |
| Fc1ccccc1C1=NOC(Cc2ccccc2)(c2ccccc2)C1 (centres unmarked) [compound 75, 5-Benzyl-3-(2-fluorophenyl)-5-phenyl-4,5-dihydro-isoxazole] | 134.3 to 135.2 |  |  |  |
| COc1ccccc1CC1CC(c2ccc(Cl)cc2)=NO1 (centres unmarked) [compound 36, 3-(4-Chlorophenyl)-5-(2-methoxybenzyl)-4,5-dihydroisoxazole] | 109.9 to 111.2 |  |  |  |
| c1ccc(CC2CC(c3ccccc3)=NO2)cc1 (centres unmarked) [compound 107, 5-Benzyl-3-phenyl-4,5-dihydroisoxazole] | 67 to 68 |  |  |  |
| Clc1ccc(C2=NOC(Cc3cccc4ccccc34)C2)cc1 (centres unmarked) [compound 41, 3-(4-Chlorophenyl)-5-naphthalen-1-ylmethyl-4,5-dihydro-isoxazole] | 127.9 to 130.9 |  |  |  |
| Oc1ccc(CCC2=NOC(Cc3ccccc3)C2)cc1 (centres unmarked) [compound 93, 5-Benzyl-3-[2-(4-hydroxy-phenyl)-ethyl]-4,5-dihydro-isoxazole] | 143 to 144.8 |  |  |  |
| c1ccc(CCC2=NOC(CCc3ccccc3)C2)cc1 (centres unmarked) [compound 116, 3,5-Di-phenethyl-4,5-dihydroisoxazole] | 56.2 to 58 |  |  |  |

| SMILES | melting point [°C] | ERα receptor activation relative to 10 nM E2 corresponding 100 [1] [%] | ERβ receptor activation relative to 10 nM E2 corresponding 100 [2] [%] | other results |
| --- | --- | --- | --- | --- |
| c1ccc(CCC2=NOC(c3ccccc3)C2)cc1 (centres unmarked) [compound 110, 3-Phenethyl-5-phenyl-4,5-dihydroisoxazole] | 35 to 36.3 |  |  |  |
| COc1ccccc1C1=NOC(Cc2ccccc2)(c2ccccc2)C1 (centres unmarked) [compound 74, 5-Benzyl-3-(2-methoxyphenyl)-5-phenyl-4,5-dihydro-isoxazole] | 109.3 to 110.2 |  |  |  |
| CC1(Cc2ccccc2)CC(c2ccc3ccccc3c2)=NO1 (centres unmarked) [compound 57, 5-Benzyl-3-naphthalen-2-yl-5-methyl-4,5-dihydro-isoxazole] | 144.8 to 146.3 |  |  |  |
| c1ccc(CCC2CC(c3ccccc3)=NO2)cc1 (centres unmarked) [compound 111, 5-Phenethyl-3-phenyl-4,5-dihydroisoxazole] | 66.1 to 67.2 |  |  |  |
| CCc1ccc(CC2CC(c3ccc(Cl)cc3)=NO2)cc1 (centres unmarked) [compound 34, 3-(4-Chlorophenyl)-5-(4-ethylbenzyl)-4,5-dihydroisoxazole] | 117.1 to 119.2 |  |  |  |
| Oc1ccc(CCCC2=NOC(c3cccc(O)c3)C2)cc1 (single isomer, unassigned) [89a, 3-[3-(4-Hydroxy-phenyl)-propyl]-5-(3-hydroxy-phenyl)-4,5-dihydro-isoxazole] |  | 32.9 |  | activation at 10 µM ([2]; HEK293, 24 h, read-out: ERβ receptor activation relative to 10 nM E2 corresponding 100, sample concentration 10 μM, mean of at least three independent transfections): 12% |
| COc1ccc(CCCC2=NOC(c3ccccc3)C2)cc1 (single isomer, unassigned) [72b, 3-[3-(4-Methoxy-phenyl)-propyl]-5-phenyl-4,5-dihydroisoxazole] |  | 1.2 | −9.0 |  |
| Oc1ccc(CC2CC(CCCc3ccccc3)=NO2)cc1 (single isomer, unassigned) [100a, 5-(4-Hydroxy-benzyl)-3-(3-phenyl-propyl)-4,5-dihydro-isoxazole] |  | 67.1 | 4.7 |  |
| Oc1ccc(CCCC2=NOC(c3cccc(O)c3)C2)cc1 (single isomer, unassigned) [89b, 3-[3-(4-Hydroxy-phenyl)-propyl]-5-(3-hydroxy-phenyl)-4,5-dihydro-isoxazole] |  | 27.6 | 7.2 |  |
| Oc1ccc(CCCC2=NOC(Cc3ccc(O)cc3)C2)cc1 (single isomer, unassigned) [101a, 5-(4-Hydroxy-benzyl)-3-[3-(4-hydroxy-phenyl)-propyl]-4,5-dihydro-isoxazole] |  | 14.4 | −0.9 |  |
| Oc1ccc(CCC2=NOC(Cc3ccc(O)cc3)C2)cc1 (single isomer, unassigned) [96b, 5-(4-Hydroxy-benzyl)-3-[2-(4-hydroxy-phenyl)-ethyl]-4,5-dihydro-isoxazole] |  | 81.4 | 4.1 |  |
| Oc1ccc(CC2CC(CCCc3ccc(O)c(O)c3)=NO2)cc1 (single isomer, unassigned) [103b, 3-[3-(3,4-Dihydroxy-phenyl)-propyl]-5-(4-hydroxy-benzyl)-4,5-dihydro-isoxazole] |  | 1.4 | −0.7 |  |
| Oc1ccc(CCC2=NOC(CCc3ccccc3)C2)cc1 (single isomer, unassigned) [106b, 3-[2-(4-Hydroxy-phenyl)-ethyl]-5-phenethyl-4,5-dihydro-isoxazole] |  | 15.8 | 0.8 |  |
| Oc1ccc(CC2=NOC(c3cccc(O)c3)C2)cc1 (single isomer, unassigned) [83b, 3-(4-Hydroxy-benzyl)-5-(3-hydroxy-phenyl)-4,5-dihydro-isoxazole] |  | 3.6 | 41.3 |  |
| COc1ccc(CCCC2=NOC(c3ccccc3)C2)cc1 (single isomer, unassigned) [72a, 3-[3-(4-Methoxy-phenyl)-propyl]-5-phenyl-4,5-dihydroisoxazole] |  | 9.2 | −5.8 |  |
| Oc1ccccc1CCC1=NOC(Cc2ccc(F)cc2)C1 (single isomer, unassigned) [97a, 5-(4-Fluoro-benzyl)-3-[2-(2-hydroxy-phenyl)-ethyl]-4,5-dihydro-isoxazole] |  | 82.0 | 3.4 |  |
| c1ccc(CCC2=NOC(CCc3ccccc3)C2)cc1 (single isomer, unassigned) [116b, 3,5-Di-phenethyl-4,5-dihydroisoxazole] |  | 43.9 | −0.4 |  |
